Values after ≈ are worked out from the molar mass of the structure shown. Read-outs that look alike come from different tables or passages of the source.
Columns and labels:
Test in all cases: MIC, broth microdilution
[1] = tested on: MBL-producing isolates (Enterobacterales); assay type: cell-based; details: Enterobacterales with metallo-carbapenemases (74), cefiderocol 73 isolates; for MIC90: read-out: MIC90
[2] = tested on: MEM-nonsusceptible Enterobacterales; assay type: cell-based; details: MEM-nonsusceptible Enterobacterales (127), cefiderocol 126 isolates; for MIC90: read-out: MIC90
[3] = tested on: MEM-nonsusceptible Enterobacterales with serine-carbapenemases; assay type: cell-based; details: MEM-nonsusceptible Enterobacterales with serine-carbapenemases (58)
96 P. aeruginosa = assay type: cell-based, Pseudomonas aeruginosa; details: Pseudomonas aeruginosa (96); for MIC50 / MIC90: fixed concentration (μg/mL) in label; for MIC50: read-out: MIC50; for MIC90: read-out: MIC90
[4] = tested on: 207 Enterobacterales including carbapenem-resistant isolates; assay type: cell-based; details: for MIC90: read-out: MIC90
[5] = tested on: MEM-nonsusceptible Enterobacterales with metallo-carbapenemases; assay type: cell-based; details: MEM-nonsusceptible Enterobacterales with metallo-carbapenemases (55), cefiderocol 54 isolates
[6] = tested on: MEM-, imipenem/relebactam-, and ceftolozane/tazobactam-nonsusceptible P. aeruginosa; assay type: cell-based, Pseudomonas aeruginosa; details: for CLSI MIC interpretation I (intermediate) / CLSI MIC interpretation R (resistant) / CLSI MIC interpretation S (susceptible): marked c: breakpoints for β-lactam alone; for MIC50 / MIC90: Pseudomonas aeruginosa; for MIC50: read-out: MIC50; for MIC90: read-out: MIC90
[7] = tested on: 55 isolates of A. baumannii; assay type: cell-based, Acinetobacter baumannii; details: Acinetobacter baumannii (55); for MIC90: read-out: MIC90
[8] = tested on: serine-carbapenemase-producing isolates (Enterobacterales); assay type: cell-based; details: Enterobacterales with serine-carbapenemases (80); for MIC50 / MIC90: fixed concentration (μg/mL) in label; for MIC50: read-out: MIC50; for MIC90: read-out: MIC90
[9] = CLSI breakpoints, marked c: breakpoints for β-lactam alone, tigecycline: FDA breakpoints
[10] = fixed concentration (μg/mL) in label, read-out: MIC50
[11] = fixed concentration (μg/mL) in label
[12] = fixed concentration (μg/mL) in label, read-out: MIC90
[13] = CLSI breakpoints, marked c: breakpoints for β-lactam alone
[14] = All Enterobacterales (207), cefiderocol 205 isolates, CLSI breakpoints, marked c: breakpoints for β-lactam alone, tigecycline: FDA breakpoints
[15] = Imipenem/relebactam-nonsusceptible Pseudomonas aeruginosa (43), CLSI breakpoints
[16] = MEM-nonsusceptible Pseudomonas aeruginosa (76), CLSI breakpoints
[17] = Imipenem/relebactam-nonsusceptible Pseudomonas aeruginosa (43), fixed concentration (μg/mL) in label
[18] = MEM-nonsusceptible Pseudomonas aeruginosa (76), fixed concentration (μg/mL) in label

C[C@H]1COc2c(N3CCN(C)CC3)c(F)cc3c(=O)c(C(=O)O)cn1c23 [Levofloxacin]
CLSI MIC interpretation I (intermediate) [1, 9]: 6.8% | CLSI MIC interpretation R (resistant) [1, 9]: 81.1% | CLSI MIC interpretation S (susceptible) [1, 9]: 12.2% | MIC50 [1, 10]: 32 µg/mL (≈ 88.6 µM) | MIC90 [1, 11]: > 64 µg/mL | CLSI MIC interpretation I (intermediate) [2, 9]: 2.4% | CLSI MIC interpretation R (resistant) [2, 9]: 79.5% | CLSI MIC interpretation S (susceptible) [2, 9]: 18.1% | MIC50 [2, 10]: 32 µg/mL (≈ 88.6 µM) | MIC90 [2, 11]: 64 µg/mL (≈ 177 µM) | CLSI MIC interpretation I (intermediate) [3, 9]: 0% | CLSI MIC interpretation R (resistant) [3, 9]: 75.9% | CLSI MIC interpretation S (susceptible) [3, 9]: 24.1% | MIC50 [3, 10]: 32 µg/mL (≈ 88.6 µM) | MIC90 [3, 12]: 64 µg/mL (≈ 177 µM) | CLSI MIC interpretation I (intermediate) (96 P. aeruginosa; [13]): 4.2% | CLSI MIC interpretation R (resistant) (96 P. aeruginosa; [13]): 81.3% | CLSI MIC interpretation S (susceptible) (96 P. aeruginosa; [13]): 14.6% | MIC50 (96 P. aeruginosa): 32 µg/mL (≈ 88.6 µM) | MIC90 (96 P. aeruginosa): 64 µg/mL (≈ 177 µM) | CLSI MIC interpretation I (intermediate) [4, 14]: 3.9% | CLSI MIC interpretation R (resistant) [4, 14]: 72% | CLSI MIC interpretation S (susceptible) [4, 14]: 24.2% | MIC50 ([4]; read-out: MIC50): 16 µg/mL (≈ 44.3 µM) | MIC90 [4]: 64 µg/mL (≈ 177 µM) | CLSI MIC interpretation I (intermediate) [5, 9]: 5.5% | CLSI MIC interpretation S (susceptible) [5, 9]: 5.5% | MIC50 [5, 10]: 32 µg/mL (≈ 88.6 µM) | MIC90 [5, 12]: > 64 µg/mL | CLSI MIC interpretation (%) I ([6]; I, intermediate (including susceptible dose-dependent), CLSI breakpoints, last subgroup of Table 2): 2.2% | CLSI MIC interpretation I (intermediate) [6, 15]: 0% | CLSI MIC interpretation R (resistant) [6, 15]: 100% | CLSI MIC interpretation S (susceptible) [6, 15]: 0% | CLSI MIC interpretation I (intermediate) [6, 16]: 1.3% | CLSI MIC interpretation R (resistant) [6, 16]: 89.5% | CLSI MIC interpretation S (susceptible) [6, 16]: 9.2% | MIC50 [6, 17]: 32 µg/mL | MIC90 [6, 17]: > 64 µg/mL | MIC50 [6, 18]: 32 µg/mL (≈ 88.6 µM) | MIC90 [6, 18]: > 64 µg/mL | MIC50 ([6]; Table 2, broth microdilution): 32 µg/mL (≈ 88.6 µM) | MIC90 ([6]; Table 2, broth microdilution): 64 µg/mL (≈ 177 µM) | CLSI MIC interpretation (%) R ([6]; R, resistant, CLSI breakpoints, last subgroup of Table 2): 91.1% | CLSI MIC interpretation (%) S ([6]; S, susceptible, CLSI breakpoints, last subgroup of Table 2): 6.7% | CLSI MIC interpretation I (intermediate) [7, 13]: 10.9% | CLSI MIC interpretation R (resistant) [7, 13]: 89.1% | CLSI MIC interpretation S (susceptible) [7, 13]: 0% | MIC50 [7, 10]: 16 µg/mL (≈ 44.3 µM) | MIC90 [7, 11]: 64 µg/mL (≈ 177 µM) | CLSI MIC interpretation I (intermediate) [8, 9]: 1.3% | CLSI MIC interpretation R (resistant) [8, 9]: 71.3% | CLSI MIC interpretation S (susceptible) [8, 9]: 27.5% | MIC50 [8]: 16 µg/mL (≈ 44.3 µM) | MIC90 [8]: > 64 µg/mL

O=C(O)c1cn(C2CC2)c2cc(N3CCNCC3)c(F)cc2c1=O [Ciprofloxacin]
MIC90 [1, 11]: > 64 µg/mL | MIC90 [2, 11]: > 64 µg/mL | MIC50 (96 P. aeruginosa): 16 µg/mL (≈ 48.3 µM) | MIC90 (96 P. aeruginosa): 64 µg/mL (≈ 193 µM) | MIC90 [4]: > 64 µg/mL | MIC50 [6, 17]: 32 µg/mL | MIC90 [6, 17]: 64 µg/mL | MIC50 [6, 18]: 16 µg/mL (≈ 48.3 µM) | MIC90 [6, 18]: 64 µg/mL (≈ 193 µM) | MIC50 ([6]; Table 2, broth microdilution): 32 µg/mL (≈ 96.6 µM) | MIC90 ([6]; Table 2, broth microdilution): 64 µg/mL (≈ 193 µM) | MIC90 [7, 11]: > 64 µg/mL | MIC50 [8]: 32 µg/mL (≈ 96.6 µM) | MIC90 [8]: > 64 µg/mL
